Laboratory results taken from article PMC8846360, “Structural Optimization and Improving Antitumor Potential of Moreollic Acid from Gamboge” (Molecules, 2022).
Read-outs that look alike come from different tables or passages of the source.

Key:
[1] = system: human colon cancer cells (SW620); assay: CCK-8 cell proliferation assay, SW620; format: cell-based; details: read-out: IC50 ± SD SW620
Protocol: (§1) To further assess the antitumor activities of synthesized compounds against human colon cancer cells, the effects of each synthesized compound on the viability of two additional human colon cancer cells (SW620, DLD1) were evaluated, and normal human colonic epithelial cells (NCM460) were used as a control. It is obvious that all the synthesized compounds display potential antitumor activities against HCT116, DLD1, and SW620 cells. […] In addition, for SW620, the activities of most optimized compounds were slightly stronger than that of 5-Fu.
(§2) HCT116, SW620, and DLD1 were purchased from American Type Culture Collection (ATCC). SW620 and DLD1 were cultured in Dulbecco’s Modified Eagles medium (Thermo), and HCT116 was cultured in McCoy’s 5A medium (Thermo). All media were supplemented with 10% fetal bovine serum (Thermo) and 1% penicillin/streptomycin. All the cells were passaged at approximately 80% confluency. Cells were tested for mycoplasma every two months, and only mycoplasma-negative cells were used
(§3) To investigate the effects of compounds on tumor cells’ proliferation, the cell proliferation assay was performed using the Cell Counting Kit-8 (#40203ES60, Yeasen, Shanghai, China). In brief, cells were seeded in a 96-well plate at 3 × 10^3 cells per well and cultured overnight. Then, the medium was replaced with fresh DMEM medium containing various concentrations of compounds or vehicle. After 48 h of incubation, the medium was exchanged with 100 μL of FBS-free DMEM medium supplemented with 10 μL of CCK8 added to each well and incubated at 37 °C for another 2 h. Absorbance at 450 nm was measured with a microplate reader (Thermo). The experiments were performed in triplicate. The mean ± SD values presented in the figures were calculated from three independent experiments. Comparisons between groups were evaluated using GraphPad Prism version 7.0 software. p < 0.05 was considered statistically significant.

[2] = system: normal human colonic epithelial cells (NCM460); assay: CCK-8 cell proliferation assay, NCM460; format: cell-based; details: read-out: IC50 ± SD NCM460
Protocol: as §1, §3

[3] = system: human colon cancer cells (HCT-116); assay: CCK-8 cell proliferation assay, HCT-116; format: cell-based; details: for inhibition at 5 µM: read-out: Inhibition rates (%) HCT-116; for IC50: read-out: IC50 ± SD HCT116
Protocol: (§4) Initially, the target compounds were evaluated for antiproliferative activities against human non-small-cell lung cancer cells (A549), human breast cancer cells (MDA-MB-231), human esophageal cancer cells (KYSE30), and human colon cancer cells (HCT-116) at 5 μM. All of them were tested by the CCK-8 assay using 5-Fu as the positive control.
as §1, §2, §3

[4] = system: human non-small-cell lung cancer cells (A549); assay: CCK-8 cell proliferation assay, A549; format: cell-based; details: 48 h, read-out: Inhibition rates (%) A549
Protocol: as §4, §3

[5] = system: human colon cancer cells (DLD1); assay: CCK-8 cell proliferation assay, DLD1; format: cell-based; details: read-out: IC50 ± SD DLD1
Protocol: as §1, §2, §3

[6] = system: human esophageal cancer cells (KYSE30); assay: CCK-8 cell proliferation assay, KYSE30; format: cell-based; details: KYSE-30, 48 h, read-out: Inhibition rates (%) KYSE30
Protocol: as §4, §3

[7] = system: human breast cancer cells (MDA-MB-231); assay: CCK-8 cell proliferation assay, MDA-MB-231; format: cell-based; details: 48 h, read-out: Inhibition rates (%) MDA-MB-231
Protocol: as §4, §3

DLD1 cells = assay: Flow cytometric cell-cycle distribution, DLD1; format: cell-based, human; details: 6 h after nocodazole (400 ng/mL), flow cytometry
Protocol: (§5) Additionally, flow cytometric analyses were performed to determine cell-cycle distribution, where 400 ng/mL of nocodazole was used to synchronize cells in G2/M phase.
Figure 3 TH12-10 blocks S phase entry. (A) Immunoblot analysis of Cyclin D1, CDK4, CDK6, and p-Rb in SW620 and DLD1 cells treated with indicated concentrations of TH12-10 for 48 h. (B) Densitometry analysis of indicated proteins as described in (A) was performed using Image J software. […] (D) Quantitative analysis of DLD1 cells in G1 phase as described in (C). All data are presented as means ± SD of three independent experiments. * p < 0.05, ** p < 0.01, *** p < 0.001. N.S., not significant. Differences were tested using one-way ANOVA (B) or the unpaired t-test with Welch’s correction (D).

[8] = system: CyclinD1, CDK6, CDK4, p-Rb in SW620 cells; assay: Immunoblot of cell-cycle regulatory proteins, SW620; format: cell-based, human; details: indicated concentrations, 48 h
Protocol: as §5
(§6) When 80% confluency was reached, cells were seeded into a 6-well plate at 3 × 10^6 cells per well and allowed to attach overnight. Then, the cells were treated with different concentrations of TH12-10 or vehicle for 48 h. Cells were lysed in RIPA buffer (#89900, Thermo, Waltham, MA, USA) supplemented with protease inhibitor cocktail (#B14002, Bimake, Houston, TX, USA) on ice for 30 min and centrifuged at 12,000 rpm for 10 min at 4 °C. Protein concentration was determined by the BCA kit and equal amounts of lysates were separated by SDS-polyacrylamide gels, and transferred to nitrocellulose membranes (#HATF00010, Millipore, Burlington, MA, USA). Then, the membranes were blocked with 5% milk in TBST for 1 h and probed with the indicated antibodies. […]
(§7) Figure 3 TH12-10 blocks S phase entry. […] (D) Quantitative analysis of DLD1 cells in G1 phase as described in (C). […]

[9] = system: CyclinD1, CDK6, CDK4, p-Rb in NCM460 cells; assay: Immunoblot of cell-cycle regulatory proteins, NCM460; format: cell-based, human; details: indicated concentrations, 48 h
Protocol: as §5, §6
Figure 4 The contribution of TH12-10 to the cell cycle. […] (D) Quantitative analysis of NCM460 cells in G1 phase as described in (C). […]

[10] = system: CyclinD1, CDK6, CDK4, p-Rb in DLD1 cells; assay: Immunoblot of cell-cycle regulatory proteins, DLD1; format: cell-based, human; details: indicated concentrations, 48 h
Protocol: as §5, §6, §7

[11] = NCM460, CCK-8, 48 h, normal colonic epithelial cells

| SMILES | IC50 ([1]; SW-620, CCK-8, 48 h) | IC50 [2, 11] | inhibition at 5 µM ([3]; HCT-116, 5 μM, CCK-8, 48 h) | IC50 ([3]; HCT-116, CCK-8, 48 h) | inhibition at 5 µM [4] | IC50 ([5]; DLD-1, CCK-8, 48 h) | inhibition at 5 µM [6] | inhibition at 5 µM [7] | IC50 ([1]; SW-620, 48 h) | IC50 ([2]; NCM460, 48 h) | IC50 ([3]; HCT-116, 48 h) | inhibition at 5 µM ([3]; HCT-116, 48 h) | IC50 ([5]; DLD-1, 48 h) | percentage of cells in the G1 phase vs blank control (DLD1 cells) | expression of CyclinD1, CDK6, CDK4 and p-Rb [8] | expression of CyclinD1, CDK6, CDK4 and p-Rb [9] | expression of CyclinD1, CDK6, CDK4 and p-Rb [10] |
| --- | --- | --- | --- | --- | --- | --- | --- | --- | --- | --- | --- | --- | --- | --- | --- | --- | --- |
| O=c1[nH]cc(F)c(=O)[nH]1 [5-Fu, 5-fluorouracil, reference compound] | 2.68 ± 0.01 µM | 13.6 ± 0.59 µM | 74.5 ± 1.1% | 0.62 ± 0.02 µM | 21.1 ± 1.79% | 7.89 ± 0.75 µM | 28 ± 2.27% | 26.6 ± 2.51% | – | – | – | – | – | – | – | – | – |
| COC1C2CC3C(C)(C)OC(CC=C(C)C(=O)O)(C2=O)C32Oc3c(CC=C(C)C)c4c(c(O)c3C(=O)C12)C=CC(C)(C)O4 (stereo not drawn) [TH12-1, Moreollic acid] | – | – | – | – | 18.38 ± 0.02% | – | 20.76 ± 0.04% | -4.9 ± 0.04% | 1.49 ± 0.37 µM | 3.16 ± 0.32 µM | 1.71 ± 0.33 µM | 83.9 ± 1.1% | 1.44 ± 0.29 µM | – | – | – | – |
| COC1C2CC3C(C)(C)OC(CC=C(C)C(=O)N4CCCCC4)(C2=O)C32Oc3c(CC=C(C)C)c4c(c(O)c3C(=O)C12)C=CC(C)(C)O4 (stereo not drawn) [TH12-2] | 1.15 ± 0.13 µM | 4.73 ± 0.04 µM | 86.1 ± 2.83% | 1.19 ± 0.25 µM | 2.51 ± 4.32% | 1.39 ± 0.19 µM | 9.08 ± 2.44% | 0.14 ± 3.51% | – | – | – | – | – | – | – | – | – |
| COC1C2CC3C(C)(C)OC(CC=C(C)C(=O)N4CCOCC4)(C2=O)C32Oc3c(CC=C(C)C)c4c(c(O)c3C(=O)C12)C=CC(C)(C)O4 (stereo not drawn) [TH12-3] | 1.82 ± 0.33 µM | 4.72 ± 0.03 µM | 87.4 ± 2.49% | 1.96 ± 0.2 µM | 11.6 ± 4.25% | 2.31 ± 0.23 µM | 10.6 ± 2.66% | 1.71 ± 1.66% | – | – | – | – | – | – | – | – | – |
| COC1C2CC3C(C)(C)OC(CC=C(C)C(=O)N4CCSCC4)(C2=O)C32Oc3c(CC=C(C)C)c4c(c(O)c3C(=O)C12)C=CC(C)(C)O4 (stereo not drawn) [TH12-4] | 7.26 ± 0.87 µM | 19.9 ± 0.84 µM | 16.3 ± 4.56% | 7.62 ± 0.93 µM | 11.1 ± 5.41% | 7.89 ± 0.12 µM | 6.98 ± 1.99% | 3.13 ± 1.16% | – | – | – | – | – | – | – | – | – |
| COC1C2CC3C(C)(C)OC(CC=C(C)C(=O)N4CCC(C)CC4)(C2=O)C32Oc3c(CC=C(C)C)c4c(c(O)c3C(=O)C12)C=CC(C)(C)O4 (stereo not drawn) [TH12-5] | – | – | – | – | 14.3 ± 2.84% | – | 5.65 ± 3.77% | 0.69 ± 1.92% | 1.97 ± 0.34 µM | 5.11 ± 0.21 µM | 2.37 ± 0.63 µM | 85.5 ± 1.45% | 2.49 ± 0.56 µM | – | – | – | – |
| COC1C2CC3C(C)(C)OC(CC=C(C)C(=O)N4CCC(c5ccccc5)CC4)(C2=O)C32Oc3c(CC=C(C)C)c4c(c(O)c3C(=O)C12)C=CC(C)(C)O4 (stereo not drawn) [TH12-7] | 1.31 ± 0.24 µM | 2.97 ± 0.08 µM | 87.1 ± 2.37% | 1.52 ± 0.14 µM | 4.59 ± 1.27% | 1.45 ± 0.25 µM | -2.71 ± 0.83% | 2.99 ± 0.16% | – | – | – | – | – | – | – | – | – |
| COC1C2CC3C(C)(C)OC(CC=C(C)C(=O)N4CCC(N5CCCC5)CC4)(C2=O)C32Oc3c(CC=C(C)C)c4c(c(O)c3C(=O)C12)C=CC(C)(C)O4 (stereo not drawn) [TH12-8] | 0.97 ± 0.1 µM | 2.29 ± 0.01 µM | 87.6 ± 2.76% | 1 ± 0.13 µM | 4.8 ± 0.63% | 1.05 ± 0.23 µM | 4.04 ± 1.5% | 4.32 ± 1.96% | – | – | – | – | – | – | – | – | – |
| CONC(=O)C(C)=CCC12OC(C)(C)C3CC(C1=O)C(OC)C1C(=O)c4c(O)c5c(c(CC=C(C)C)c4OC132)OC(C)(C)C=C5 (stereo not drawn) [TH12-9] | 1.59 ± 0.44 µM | 1.63 ± 0.02 µM | 83.9 ± 2.07% | 1.68 ± 0.26 µM | 8.54 ± 1.11% | 1.67 ± 0.7 µM | 4.49 ± 1.05% | -1.76 ± 0.43% | – | – | – | – | – | – | – | – | – |
| COC1C2CC3C(C)(C)OC(CC=C(C)C(=O)N4CCS(=O)(=O)CC4)(C2=O)C32Oc3c(CC=C(C)C)c4c(c(O)c3C(=O)C12)C=CC(C)(C)O4 (stereo not drawn) [TH12-10] | 0.79 ± 0.12 µM | 4.08 ± 0.11 µM | 88.1 ± 2.78% | 0.83 ± 0.1 µM | 6.85 ± 2.16% | 1.1 ± 0.19 µM | 3.65 ± 2.44% | 8.09 ± 0.28% | – | – | – | – | – | significantly higher | significantly decreased | no significant change | significantly decreased |
